Patent publication US20120270851A1, “USE OF […] THE TREATMENT OR PREVENTION OF MALARIA” (SANOFI, priority 2009, published 2012)
Where two headings read alike, the source gives them in different places.

Key:
[1] = system: P. vivax; conditions: FIG. 2
Protocol: (§1) In Vitro Evaluation of the Efficacy of Ferroquine Versus Other Reference Antimalaria Agents, on Blood Isolates Infected with P. vivax
(§2) The test that follows is performed on 110 isolates of P. vivax, collected in the north-west of Thailand (Tak province) on consenting patients, infected with P. vivax and in the acute phase of the infection, who came for consultation at the Shoklo Malaria Research Unit (SMRU).
(§3) The samples are collected 5 hours after their arrival and placed in 5 ml heparinized tubes, at room temperature.
(§4) The platelets and leukocytes are removed from these isolates, by analogy with the method described in Kanlaya et al., Malaria Journal, 2009, 8:115.
Russell, B. et al. 2008, Antimicrob. Agents Chemother. 52:1040-5.

[2] = system: P. vivax; conditions: read-out: EC50 (effective concentration 50); blood isolates of P. vivax from patients, north-west Thailand; FIG. 1
Protocol: as §1, §2, §3, §4

Question: For ferroquine, which IC50 ([1]; read-out: IC50 (inhibitory concentration 50), mature trophozoite stage, mature trophozoite stage of P. vivax) is on record?
Answer: 0.021 µM

Question: What about the IC50 ([1]; read-out: IC50 (inhibitory concentration 50), ring stage, young immature trophozoites (ring stage) of P. vivax) of the same substance?
Answer: 0.014 µM

Question: What about the EC50 [2] of the same substance?
Answer: ~0.006 µM
